In patent publication US20230226013A1, “COMPOSITION AND METHOD FOR TREATING CANCER” (Carmel-Haifa University Economic Corp Ltd., priority 2019, published 2023):

Assays:
[1] = tested on: HPAF-II and PL45 human pancreatic cancer cells; experiment: Annexin-V/PI assay, induction of apoptosis; assay type: cell-based; details: low doses, 4 hours of exposure
Procedure: Particularly, Cell death was analyzed by staining the cells with FITC-labeled Annexin V and propedium iodide (PI) using an Annexin V-FITC apoptosis detection kit, (MBL, Nagoya, Japan), according to the manufacturer’s instructions.

[2] = tested on: HPAF-II and PL45 human pancreatic cancer cells; experiment: XTT assay, cell viability / proliferation; assay type: cell-based
Procedure: Reference is now made to FIG. 4, presenting the effect of Striatal C on the viability of HPAF-II and PL45 human pancreatic cancer cells, in comparison to the effect of the Cyathus striatus CBS 126585 extract on the same cells, wherein the measurements of the effects are based on an XTT assay. Particularly, cell proliferation was determined using the sodium 3′-[1-(phenylaminocarbonyl)-3,4-tetrazolium]-bis (4-methoxy-6-nitro) benzene sulfonic acid hydrate (XTT) assay, according to the manufacturer’s instructions (Biological Industries, Beit Haemek, Israel).

[3] = Stability of the isolated compound (solid state; in dichloromethane solution); assay type: physicochemical; details: solid state conditions at -20° C.
Procedure: 2. The isolated compound was stable and pure (purity > 95% by HPLC) at solid state conditions at -20° C.
4. During NMR experiments observed partially isomerization of isolated compound. The dissolving in dichloromethane at 20 mg/ml concentration leads to steady state between major and minor isomers with ratio ~75:25. HPLC analyses of NMR solution show only one peak of isolated compound.

SMILES | induction of apoptosis [1] | most effective concentration ([2]; control 0 µg/ml) [µg/mL] | effect on cell viability ([2]; low doses, 4 hours of exposure) | stability at solid state [3]
CC(C)C1=C2C3=CC=C(C=O)[C@@H]4C(O[C@@H]5OC[C@@H](O)C(=O)[C@@]54O)[C@]3(C)CC[C@@]2(C)CC1 (stereo partly shown) [Striatal C] | induction of apoptosis | 10 | profound decrease in cell viability | 
CC(C)C1=C2[C@H]3[C@@H](O)C=C(C=O)[C@@H]4C(O[C@@H]5OC[C@@H](O)C(=O)[C@@]54O)[C@]3(C)CC[C@@]2(C)CC1 (stereo partly shown) [isolated compound] |  |  |  | stable
